ChEMBL document CHEMBL4706686, “Design, synthesis and biological evaluation of dihydrofurocoumarin derivatives as potent neuraminidase inhibitors” (Bioorg Med Chem Lett, 2021)

Assay: Inhibition of Influenza virus H5N1 neuraminidase
Design: species or system H5N1 subtype

| SMILES | IC50 [µM] |
| --- | --- |
| Cc1cc(=O)oc2c3c(ccc12)O/C(=C\c1ccc(O)c([N+](=O)[O-])c1)C3=O | 0.02 |
| Cc1cc(=O)oc2c3c(ccc12)O/C(=C\c1ccc(Cl)cc1Cl)C3=O | 36.2 |
| Cc1cc(=O)oc2c3c(ccc12)O/C(=C\c1ccc(OS(C)(=O)=O)cc1)C3=O | 32.4 |
| COc1ccc(/C=C2\Oc3ccc4c(C)cc(=O)oc4c3C2=O)cc1O | 0.04 |
| COc1cc(/C=C2\Oc3ccc4c(C)cc(=O)oc4c3C2=O)cc(OC)c1O | 0.15 |
| CCCOc1ccc(/C=C2\Oc3ccc4c(C)cc(=O)oc4c3C2=O)cc1 | 45.8 |
| Cc1cc(=O)oc2c3c(ccc12)O/C(=C\c1ccc([N+](=O)[O-])c(O)c1)C3=O | 0.03 |
| Cc1cc(=O)oc2c3c(ccc12)O/C(=C\c1ccccn1)C3=O | 39.5 |
| CCOc1cc(/C=C2\Oc3ccc4c(C)cc(=O)oc4c3C2=O)ccc1O | 30 |
| Cc1cc(=O)oc2c3c(ccc12)O/C(=C\c1cc([N+](=O)[O-])ccc1F)C3=O | 99.8 |
| CCC(CC)O[C@@H]1C=C(C(=O)O)C[C@H](N)[C@H]1NC(C)=O [OSELTAMIVIR CARBOXYLATE] | 0.04 |
| CCOC(=O)C1=C[C@@H](OC(CC)CC)[C@H](NC(C)=O)[C@@H](N)C1 [OSELTAMIVIR] | 0.1 |
